Paper PMC6255837, “Ternary crystal structure of human RORγ ligand-binding-domain, an inhibitor and corepressor peptide provides a new insight into corepressor interaction” (Scientific Reports, 2018)
Each block holds one compound with its values, some of them ahead of it.

What was measured:
[1] = test system: IL-17 release; set-up: method as in PMID 26819660; conditions: orally administered, inflammatory model mice; cited from earlier work
[2] = biological target: T1, RORγ-LBD (Homo sapiens, UniProt P51449); experiment: FRET-based CoR peptide recruitment assay (dual TR-FRET); type: biochemical; conditions: for relative efficacy (RE) in CoR recruitment: compared with compound A
T1 construct: the glutathione-S-transferase (GST)-tagged RORγ-LBD produced in Sf9 cells; GST; made in house; host or cells: Sf9 cells
T1 sequence (P51449 269-508 limits assumed): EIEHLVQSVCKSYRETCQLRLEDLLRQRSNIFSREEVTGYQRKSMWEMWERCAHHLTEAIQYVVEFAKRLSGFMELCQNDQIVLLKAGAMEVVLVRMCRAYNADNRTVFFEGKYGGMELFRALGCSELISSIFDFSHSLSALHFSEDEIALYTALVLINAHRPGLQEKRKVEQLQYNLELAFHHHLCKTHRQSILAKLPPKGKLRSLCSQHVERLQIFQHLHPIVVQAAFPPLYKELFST
Description: Figure 1 The relative efficacy (RE) of CoR peptide recruitment to the RORγ-LBD and LUC activity by inverse agonists. […] Background activity in the absence of a standard inverse agonist is defined as 0% response; and maximum activity induced by a standard inverse agonist at 100μM as 100% response. […] A value of 100% is given to cells without inverse agonist in LUC assay. […] Detailed methods on plasmid construction, sample preparation, crystallization, structure determination, and FRET and LUC assays are provided in previous publications. […] The purified proteins were crystallized in complex with rockogenin and CoR peptide (ternary complex structures). […] The complex structures were determined by molecular replacement method using the RORγ-LBD apo structures as a search model. Diffraction data of the RORγ-LBD were collected at 21IDF (APS), Chicago, USA. Figures were generated using PyMOL[30].
(§1) For TR-FRET assays, the glutathione-S-transferase (GST)-tagged RORγ-LBD produced in Sf9 cells and peptide solution were incubated with compounds, and the 520/490 TR-FRET ratio was measured. Human RORγ LUC assays were carried out in accordance with the method of Madoux et al.[31] with some modifications and described previously. EC50 was calculated by curve-fitting in GraphPad Prism. Detailed descriptions of synthesis for the compounds are described elsewhere[9],[22].

[3] = biological target: T2, Human RORγ (Homo sapiens, UniProt P51449); experiment: Human RORγ luciferase (LUC) reporter assay; type: cell-based; conditions: for LUC activity relative to compound A: fold difference of EC50 versus compound A
T2 sequence (P51449 1-518): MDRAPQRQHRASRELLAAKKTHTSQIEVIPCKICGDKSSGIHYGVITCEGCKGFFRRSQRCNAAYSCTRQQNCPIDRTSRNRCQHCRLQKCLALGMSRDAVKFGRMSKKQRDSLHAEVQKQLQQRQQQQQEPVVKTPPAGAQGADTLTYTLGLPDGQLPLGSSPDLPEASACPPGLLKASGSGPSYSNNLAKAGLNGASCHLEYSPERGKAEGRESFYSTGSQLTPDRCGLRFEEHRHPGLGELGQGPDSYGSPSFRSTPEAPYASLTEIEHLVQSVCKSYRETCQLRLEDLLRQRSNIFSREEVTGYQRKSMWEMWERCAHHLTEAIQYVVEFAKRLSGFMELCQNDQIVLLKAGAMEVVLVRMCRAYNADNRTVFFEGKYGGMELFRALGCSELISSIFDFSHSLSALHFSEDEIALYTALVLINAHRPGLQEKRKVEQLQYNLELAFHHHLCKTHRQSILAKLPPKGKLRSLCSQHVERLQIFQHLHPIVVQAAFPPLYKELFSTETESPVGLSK
Description: Figure 1 The relative efficacy (RE) of CoR peptide recruitment to the RORγ-LBD and LUC activity by inverse agonists. […] Background activity in the absence of a standard inverse agonist is defined as 0% response; and maximum activity induced by a standard inverse agonist at 100μM as 100% response. […] A value of 100% is given to cells without inverse agonist in LUC assay. […] Human RORγ LUC assays were carried out in accordance with the method of Madoux et al.[31] with some modifications and described previously. EC50 was calculated by curve-fitting in GraphPad Prism. Detailed descriptions of synthesis for the compounds are described elsewhere[9],[22].

[4] = test system: Th17 cells; set-up: method as in earlier work; conditions: cited from earlier work
[5] = biological target: T1, RORγ-LBD; experiment: FRET-based CoA peptide releasing assay (dual TR-FRET); type: biochemical; conditions: GST-tagged RORγ-LBD, read-out: EC50 release of CoA peptide (FRET)
Description: Figure 1 The relative efficacy (RE) of CoR peptide recruitment to the RORγ-LBD and LUC activity by inverse agonists. […] Background activity in the absence of a standard inverse agonist is defined as 0% response; and maximum activity induced by a standard inverse agonist at 100μM as 100% response. […] A value of 100% is given to cells without inverse agonist in LUC assay.
Detailed methods on plasmid construction, sample preparation, crystallization, structure determination, and FRET and LUC assays are provided in previous publications. […] The purified proteins were crystallized in complex with rockogenin and CoR peptide (ternary complex structures). […] The complex structures were determined by molecular replacement method using the RORγ-LBD apo structures as a search model. Diffraction data of the RORγ-LBD were collected at 21IDF (APS), Chicago, USA. Figures were generated using PyMOL[30].
as §1

SMILES: CC(=O)N1CC(C(=O)Nc2ccc(C)cc2C)C(c2nnc(C3CC(CC(C)C)C3)n2C2CC2)C1 (stereo not shown) [compound A]
IL-17 release [1]: effectively suppressed IL-17 release in a dose-dependent manner

EC50 ([2]; TR-FRET, GST-tagged RORγ-LBD, compound T n = 1): 250 nM
relative efficacy (RE) in CoR recruitment [2]: about half that of compound A
relative efficacy (RE) in CoR recruitment ([2]; listed as Compound T): half the efficacy of compound A
LUC activity relative to compound A [3]: nine times lower activity
LUC activity relative to compound A ([3]; listed as Compound T): nine-times lower than compound A
EC50 ([3]; luciferase reporter assay, means ± SE (n = 2–3)): 440 nM
EC50 [5]: 500 nM
SMILES: COc1ccc(-c2c(-c3nc(CC(=O)NCC4CCOCC4)cs3)cnn2C(C)(C)C)cc1 [compound T]
production of IL-17 [4]: inhibits the production of IL-17

SMILES: C[C@@H]1CC[C@@]2(OC1)O[C@H]1C[C@H]3[C@@H]4CC[C@H]5C[C@@H](O)CC[C@]5(C)[C@H]4C[C@@H](O)[C@]3(C)[C@H]1[C@@H]2C [rockogenin]
CoR peptide-recruiting activity in dual FRET assay ([2]; result in words): not detected
